Laboratory results published in patent publication US20240376098A1, “METHODS OF TREATMENT USING BCN057, BCN077 AND ANALOGS” (BCN Biosciences L.L.C., priority 2021, published 2024).

Legend:
c-Jun = assay: Western blot of Phospho-c-Jun (T-91/93) in Panc-1 cells; assay type: cell-based, human
Description: (§1) Western Blot: Cells were harvested and lysed in cell lysis buffer on ice for 15 minutes and the lysate was centrifuged at 13,000 rpm at 4° C. for 10 minutes. The supernatant was transferred into a new tube for BCA protein quantification assay (Thermo Fisher Scientific) and the samples were normalized. 3× loading buffer (Cell Signaling) was added the protein sample and boiled for 5 minutes. The samples were used for SDS-PAGE analysis and transferred to nitrocellulose membrane. The membrane was blocked with 5% BSA at room temperature for 1 hour and incubated with primary antibody at 4° C. overnight. The membrane was washed with 1×TBST 5 minutes for 3 times and incubated with horseradish peroxidase-conjugated secondary antibody for 1 hour at room temperature. The protein was visualized by SuperSignal West Pico Stable Peroxide Solution (Thermo Fisher Scientific). The blot was visualized by chemiluminescence using a BioRad Versadoc Imaging System. Phosphorylation at T 91/93 in c-Jun was measured as a function of total c-Jun. Significant phosphorylation at T 91/93 was observed which has been reported to be associated with the activation of c-Jun's pro-apoptotic activity. […] FIG. 4A is a western blot of Phospho-c-Jun (T-91/93). […] Phosphorylation of c-Jun at T-91/93 is known to induce apoptosis. Total c-Jun protein level was unchanged. […]

[1] = Solubility in aqueous formulations; assay type: physicochemical; settings: 30 wt % Captisol (SBE-beta-CD) and 100 mM MSA
PTEN = assay: Western blot of PTEN protein expression in Panc-1 cells; assay type: cell-based, human; settings: 10 μM, 20 minutes to 24 hours
Description: as §1, with “System. In KRAS dependent tumors, c-Jun acts to suppress Phosphatase and tensin homolog (PTEN) expression” for “System. Phosphorylation”, “at the promoter level and that suppression of PTEN expression is essential for anti-apoptosis and cellular transformation by oncogenic RAS. Thus, we investigated PTEN expression levels” for “at T 91/93”, “in response” for “in c-Jun was measured as a function of total c-Jun. Significant phosphorylation at T 91/93 was observed which has been reported”, “to BCN057.” for “to be associated with the activation of c-Jun's pro-apoptotic activity.”, “apoptosis.” for “apoptosis. Total c-Jun protein level was unchanged.”

[2] = tested on: PD-1 expression on human T-lymphocytes; assay: Western blot of PD-1 on T-lymphocytes co-cultured with Panc-1 cells; assay type: cell-based; settings: co-culture with Panc-1, 10 μM, sustained over 12 hours
Description: Cell lines and cell culture: Panc-1 cells were cultured in DMEM medium supplemented with 10% Fetal Bovine Serum and maintained at 37° C.5% CO2. Human Peripheral Blood Pan-T Cells were cultured in serum free T cells expansion media with 10 ng/ml of rhIL-2, T-cell activator and expanded as per the manufacturer instructions. Panc-1 cells and T-Cells were grown and expanded separately in T75 flasks. For co-culture experiments with Panc-1 cell, 2.5 million T-cells per well were plated in the well using a 6 well plate. 2.5 million Panc-1 Cells were plated in the thinsert which was placed into the well of the 6 well plate in order to have the cells physically separated but share media. The cells were incubated for 24 hours at 37° C., 5% CO2. At 24 hours the media was replaced with media containing vehicle, or 10 uM BCN057 and were incubated for the following timepoints: 1 hr, 6 hr, 12 hr, 24 hrs. The Panc-1 cells were removed by gently scraping the cells from the thinsert.
Western Blot: Cells were harvested and lysed in cell lysis buffer on ice for 15 minutes and the lysate was centrifuged at 13,000 rpm at 4° C. for 10 minutes. The supernatant was transferred into a new tube for BCA protein quantification assay (Thermo Fisher Scientific) and the samples were normalized. 3× loading buffer (Cell Signaling) was added the protein sample and boiled for 5 minutes. The samples were used for SDS-PAGE analysis and transferred to nitrocellulose membrane. The membrane was blocked with 5% BSA at room temperature for 1 hour and incubated with primary antibody at 4° C. overnight. The membrane was washed with 1×TBST 5 minutes for 3 times and incubated with horseradish peroxidase-conjugated secondary antibody for 1 hour at room temperature. The protein was visualized by SuperSignal West Pico Stable Peroxide Solution (Thermo Fisher Scientific). The blot was visualized by chemiluminescence using a BioRad Versadoc Imaging System.
BCN057 and Immune Checkpoint blockade: An emerging method of treatment for many forms of cancer, including PDAC, is immune checkpoint inhibitors. […]

[3] = tested on: c-Jun in non-transformed HEK298 epithelial cells; assay: c-Jun T 91/93 phosphorylation in non-transformed cells; assay type: cell-based; settings: data not shown
Description: Phosphorylation at T 91/93 in c-Jun was measured as a function of total c-Jun. Significant phosphorylation at T 91/93 was observed which has been reported to be associated with the activation of c-Jun's pro-apoptotic activity.

## COc1ccc2cc(-c3nc4ccc(C)cn4c3NCc3ccco3)c(=O)[nH]c2c1 [BCN057, 3-[(Furan-2-ylmethyl)-amino]-2-(7-methoxy-2-oxo-1,2-dihydro-quinolin-3-yl)-6-methyl-imidazo[1,2-a]pyridin-1-ium]
c-Jun; KRAS mutant Panc-1 cells, within 20 minutes after drug treatment
  c-Jun phosphorylation at T-91/93: significantly increases JNK dependent phosphorylation
c-Jun; Panc-1 cells
  Total c-Jun protein level: unchanged
[1]
  Solubility: excellent solubility at up to pH 4.1 or higher
PTEN
  PTEN protein expression: increased expression up to 1 hr of PTEN protein
[2]
  PD-1 expression on human T-lymphocytes: decreased significantly within the first hour
[3]
  c-Jun pro-apoptotic activity (T 91/93 phosphorylation): not found to be induced
